Assay results taken from publication PMC6498537, “Biomimetic synthesis of the natural product salviadione and its hybrids: discovery of tissue-specific anti-inflammatory agents for acute lung injury” (Chemical Science, 2019).

How the values were obtained:
[1] = Liver microsomal stability assay, rat; format: in vitro ADME; settings: rat liver microsomes
Method: (§1) Liver Microsomal Stability Assay. Microsomes in 0.1 M TRIS buffer pH 7.4 (final concentration 0.33 mg/mL), co-factor MgCl2 (final concentration 5 mM) and tested compound (final concentration 0.1 μM, co-solvent (0.01% DMSO) and 0.005% Bovin serum albumin) were incubated at 37°C for 10min. The reaction was started by the addition of NADPH (final concentration 1 mM). Aliquots were sampled at 0, 7, 17, 30 and 60 min, respectively, and methanol (cold in 4 °C) was added to terminate the […]
(§2) reaction. […]

[2] = Tissue distribution after single intravenous administration; format: in vivo, SD rats; settings: iv 2 mg kg^–1, rat
Method: Tissue Distribution Assay. Compound 15a (2 mg/kg) dissolved in PEG300/EtOH/NaCl(40/10/50, v/v/v)to a concentration of 0.4 mg/mL, and was […]
given to SD rats (Male, 180–220 g, three groups with three rats in each group) by intravenous administration. Blood samples and the important tissues including heart, liver, lung, kidney, and brain were collected at 0.25, 2 and 12 h after administration (anticoagulant: EDTA-Na2). For plasma samples, 250 μL of solvent of methanol: acetonitrile (1:1, v/v) with internal standard was added to 50 μL of plasma and vortexed thoroughly. For tissue samples, three times the weight of volume of PBS were added, then homogenized. The homogenates were precipitated by five times of methanol: acetonitrile (1:1, v/v) with internal standard. They were centrifuged for 5 min, and then 20 μL of the supernatant was mixed with 20 μL of water for analysis. Samples were analyzed by AB6500 triple quadrupole mass spectrometer (AB Sciex, USA). The ACQUITY UPLC BEH C18 (1.7 μm, 2.0 mm × 50 mm, Waters, USA) was used for the analysis. Gradient elution was applied consisting of ultrapure water containing 0.1% formic acid and acetonitrile containing 0.1% formic acid. […]

LPS-induced ALI in mice = assay: LPS-induced acute lung injury (ALI) in mice; format: in vivo
Method: LPS-Induced Acute Lung Injury (ALI) in B6 Mice. Compound 15a was first
dissolved with macrogol 15 hydroxystearate (a nonionic solubilizer for injection from
BASF) with or without medium chain triglycerides (MCT, from BASF) in a water bath
at 37 °C. The concentration of compound was 2 mg/mL. The concentration of
solubilizer was 5−10%, and that for MCT was 0.5−2% in final solution. For the vehicle,
the mixture of solubilizer and MCT was prepared at 10% and 2%, respectively. Mice,
weighing 20−24 g, were randomized to the following three groups of seven animals
each: CON group, LPS group, 15a + LPS group. 15a + LPS group mice were pretreated
with compounds in a water solution (5 mg/kg) by i.v injection 15 min before 5 mg/kg
of LPS was administered by intratracheal instillation. The animals in CON group
received a similar volume of vehicle. After 6 hours, mice were euthanized to collect the
BALF, serum and lung tissue samples. […]
Determination Total Protein Concentration and Number of Neutrophils in BALF.
Bronchoalveolar lavage fluid (BALF) cells and supernatant were separated by
centrifugal separation at 4 °C and 3,000 rpm for 10 minutes. Total protein concentration
in supernatant of BALF was measured using a coomassie blue staining assay kit
according to the manufacturer's instructions. The cells of BALF were resuspended in
40 μL of physiological saline and used for neutrophil cell counts by Wright–Giemsa
Serum Analysis. Blood was collected from mice at sacrifice and was centrifuged at 4
°C and 12,000 rpm for 10 minutes. […]
Real-Time Quantitative PCR. Lung tissues were homogenized in TRIZOL kit
(Invitrogen, Carlsbad, CA) for extraction of RNA according to each manufacturer’s
protocol. Both reverse transcription and quantitative PCR were carried out using a two-
step M-MLV Platinum SYBR Green qPCR SuperMix-UDG kit (Invitrogen, Carlsbad,
CA). Eppendorf Mastercycler ep realplex detection system (Eppendorf, Hamburg,
Germany) was used for RT-qPCR analysis. The primers of genes including TNF-α,
IL-6, IL-1β, ICAM-1, and β-actin were synthesized by Invitrogen. The primer
sequences of mouse genes used are shown as follows:
TNF-α sense primer, 5′-[…]-3
TNF-α antisense primer, 5′-[…]-3′;
IL-6 sense primer, 5′-[…]-3′;
IL-6 antisense primer, 5′-[…]-3′;
IL-1β sense primer, 5′-[…]-3′;
IL-1β antisense primer, 5′-[…]-3′;
ICAM-1 sense primer, 5′-[…]-3′;
ICAM-1 antisense primer, 5′-[…]-3′;
β-actin sense primer, 5′-[…]-3′;
β-actin antisense primer, 5′-[…]-3′.
Statistical Analysis. The results are presented as the mean ±SD. The Student’s t test
was employed to analyze the differences between sets of data. Statistics were performed
using GraphPad Pro (GraphPad, San Diego, CA). P values less than 0.05 (p < 0.05)

[3] = Liver microsomal stability assay, human; format: in vitro ADME
Method: as §1, §2

[4] = pretreatment 5 mg kg^–1 i.v., LPS, 6 h

## Cc1coc2c1C(=O)c1c3c-2ccc2c3c(n1Cc1ccccc1)C(=O)CC2(C)C [Compound 15a]
[1]; pH 7.4
  half-life at 0.1 μM: 23.5 min
[1]
  Clint in vitro: 89.44 mL min^–1 g^–1 protein
[2]; 0.25 h
  Concentration in brain: 224 ng g^–1
  Concentration in heart: 992 ng g^–1
  Concentration in heart plasma: 144 ng mL^–1
  Concentration in kidney: 806 ng g^–1
  Concentration in liver: 2557 ng g^–1
  Concentration in lung: 3320 ng g^–1
  Concentration in portal vein plasma: 142 ng mL^–1
[2]; 2 h
  Concentration in brain: 93.9 ng g^–1
  Concentration in heart: 223 ng g^–1
  Concentration in heart plasma: 31.2 ng mL^–1
  Concentration in kidney: 187 ng g^–1
  Concentration in liver: 518 ng g^–1
  Concentration in lung: 847 ng g^–1
  Concentration in portal vein plasma: 33.1 ng mL^–1
[2]; 12 h
  Concentration in brain: 3.11 ng g^–1
  Concentration in heart: 19.8 ng g^–1
  Concentration in heart plasma: 1.90 ng mL^–1
  Concentration in kidney: 33.0 ng g^–1
  Concentration in liver: 57.3 ng g^–1
  Concentration in lung: 633 ng g^–1
  Concentration in portal vein plasma: 2.04 ng mL^–1
  lung drug concentration relative to other tissues: 11 to 300 times
LPS-induced ALI in mice; LPS-treated lung tissues, 5 mg/kg i.v.
  mRNA expression of TNF-α, IL-6, IL-1β and ICAM-1 in lung tissue (RT-qPCR): markedly suppressed
LPS-induced ALI in mice; pretreatment 5 mg kg^–1 i.v., 15 min before LPS 5 mg/kg intratracheal, 6 h
  lung wet/dry weight ratio (lung edema): effectively reduced
LPS-induced ALI in mice; pretreatment 5 mg kg^–1 i.v., LPS
  lung macrophage infiltration (CD68 immunostaining): significantly attenuated
LPS-induced ALI in mice; [4]
  histopathological features of lung (H&E): very little histopathological changes
  level of IL-6 in BALF: distinctly suppressed
  level of IL-6 in serum: no significant inhibition
  level of TNF-α in BALF: distinctly suppressed
  level of TNF-α in serum: no significant inhibition
  number of neutrophils in BALF: significantly decreased
  protein concentration in BALF: significantly inhibited
[3]; human and rat microsomes
  enhancement of metabolic stability compared to 2: 4- to 7 fold
[3]; human liver microsomes
  Clint in vitro: 61.62 mL min^–1 g^–1 protein
[3]; pH 7.4, human liver microsomes
  half-life at 0.1 μM: 34.1 min
